Target: T1, human Nav1.1 (Homo sapiens, UniProt P35498)
T1 construct: host or cells: HEK293
Experiment: Amplification of Nav1.1-derived voltage-dependent sodium current (Nav1.1 current), cell line stably expressing human Nav1.1, automated patch clamp
Format: cell-based
Method: Test 1: Evaluation of the Amplification of Nav1.1-Derived Voltage-Dependent Sodium Current (Nav1.1 Current) by Using a Cell Line Stably Expressing Human Nav1.1
(1) Preparation of Test Compounds
Test compounds were prepared by dissolving in DMSO at 200 times of the concentration at evaluation, and diluting the obtained solution to twice the concentration of evaluation with an extracellular fluid (135 mmol/L NaCl, 4 mmol/L KCl, 1 mmol/L MgCl2, 5 mmol/L CaCl2, 5 mmol/L Glucose, 10 mmol/L HEPES).
(2) Induction and Measurement of Nav1.1 Current
A HEK293 cell line stably expressing human Nav1.1 (cat #CYL3009, Millipore, USA, Human Embryonic Kidney 293) was purchased, and used in the present test. Nav1.1 current was induced by stimulating Ramp wave voltage. Detection of current which accompanied with the stimulation of voltage was carried out by a patch-clamp voltage-clamp method using HTS automated patch clamp system (SynchroPatch 768PE, Nanion Technologies GmbH, Germany). Only cells with more than 500 pA of voltage-dependent sodium channel current were used for the evaluation of the activity of compounds on Nav1.1 current because there was the possibility that currents derived from endogenous voltage-dependent sodium channels accounted for large proportion in cells with less than 500 pA of voltage-dependent sodium channel current which was induced by stimulating Ramp wave voltage.
(3) Pharmacologic Effect on Nav1.1 Current
The effect of test compounds on the amplification of Nav1.1-derived voltage-dependent sodium current was evaluated by using a cell line stably expressing human Nav1.1 and HTS automated patch clamp system. In other words, test compounds were added in an extracellular fluid containing 1% DMSO, and evaluated as a change of the peak value of Nav1.1 current and the area under the curve (AUC).
(4) Method for Pharmacological Evaluation
The Nav1.1 current amplification rates of test compounds were calculated by the following formula:
Nav1.1 current amplification rate (%)=100×[the peak value of Nav1.1 current or the area under the curve after the addition of test compounds]/[the peak value of Nav1.1 current or the area under the curve before the addition of test compounds]−100

[1] = concentration of each compound 1 μmol/L (Test Result 6)
[2] = compound 50 μmol/L, HEK293 stably expressing human Nav1.1
[3] = 10 μmol/L compound (Test Result 5)

Nav1.1 current amplification rate (%) [1]	Compound	also measured
68%	CC1CC=C(c2ccc(=O)n(CC(=O)Nc3ccc4c(cnn4C)c3)n2)CC1 (racemic) [Example 336]	–
52%	CC1CC=C(c2ccc(=O)n(CC(=O)Nc3cnc4nccn4c3)n2)CC1 (racemic) [Example 337]	–
44%	CC1CC=C(c2ccc(=O)n(CC(=O)Nc3ccc4nccn4c3)n2)CC1 (racemic) [Example 343]	–
69%	CC1CC=C(c2ccc(=O)n(CC(=O)Nc3ccc4cncn4c3)n2)CC1 (racemic) [Example 344]	–
37%	Cc1cc2ccc(NC(=O)Cn3nc(C4=CCC(C)CC4)ccc3=O)cn2n1 (racemic) [Example 347]	–
57%	CC1CC=C(c2ccc(=O)n(CC(=O)Nc3cnc4c(cnn4C)c3)n2)CC1 (racemic) [Example 348]	–
71%	CC1CC=C(c2ccc(=O)n(CC(=O)Nc3ccn4cnnc4c3)n2)CC1 (racemic) [Example 358]	–
174%	CC1CC=C(c2ccc(=O)n(CC(=O)Nc3cccc(-n4ccnc4)c3)n2)CC1 (racemic) [Example 363]	–
25%	Cc1cc(NC(=O)Cn2nc(C3=CCC(C)CC3)ccc2=O)cc(C)n1 (racemic) [Example 364]	–
38%	CC1CC=C(c2ccc(=O)n(CC(=O)Nc3cncc(C4=CCN(C)C4)c3)n2)CC1 (racemic) [Example 367]	–

Continued, compound first:

Compound	Nav1.1 current amplification rate (%) [1]	also measured
COC1CCN(Cc2cccc3c2CCN3C(=O)Cn2nc(C3=CCC(C)CC3)ccc2=O)C1 (mixture of isomers) [Example 272]	127%	–
COC1CCN(Cc2cccc3c2CCN3C(=O)Cn2nc(C3=CCC(C)CC3)ccc2=O)C1 (mixture of isomers) [Example 273]	77%	–
CC1CC=C(c2ccc(=O)n(CC(=O)NC3CCN(c4ccccc4)C3)n2)CC1 (mixture of isomers) [Example 369]	–	Nav1.1 current amplification rate (%) [2]: 10%
CC1CC=C(c2ccc(=O)n(CC(=O)N3CCC(c4cccnc4)CC3)n2)CC1 (racemic) [Example 262]	–	Nav1.1 current amplification rate (%) [3]: 124%
COC1CN(Cc2cccc3c2CCN3C(=O)Cn2nc(C3=CCC(C)CC3)ccc2=O)C1 (racemic) [Example 274]	60%	–
COCCN(C)Cc1cccc2c1CCN2C(=O)Cn1nc(C2=CCC(C)CC2)ccc1=O (racemic) [Example 275]	46%	–
CC1CC=C(c2ccc(=O)n(CC(=O)N3CCc4c3ccnc4C3=CCN(C(=O)OC(C)(C)C)C3)n2)CC1 (racemic) [Example 280]	10%	–
CC1CC=C(c2ccc(=O)n(CC(=O)N3CCc4c3ccnc4C3=CCNC3)n2)CC1 (racemic) [Example 281]	–	Nav1.1 current amplification rate (%) [3]: 40%
CC1CC=C(c2ccc(=O)n(CC(=O)N3CCc4c(CN5CCCCC5)cccc43)n2)CC1 (racemic) [Example 282]	26%	–
CC1CC=C(c2ccc(=O)n(CC(=O)N3CCc4c3ccnc4C3=CCN(C)C3)n2)CC1 (racemic) [Example 283]	15%	–
CC1CC=C(c2ccc(=O)n(CC(=O)N3CCc4c3ccnc4C3=CCOC3)n2)CC1 (racemic) [Example 284]	91%	–
CC1CC=C(c2ccc(=O)n(CC(=O)N3CCc4c3ccnc4-c3cn[nH]c3)n2)CC1 (racemic) [Example 285]	113%	–
Cc1cn(Cc2cccc3c2CCN3C(=O)Cn2nc(C3=CCC(C)CC3)ccc2=O)cn1 (racemic) [Example 288]	115%	–
CC1CC=C(c2ccc(=O)n(CC(=O)N3CCc4nc(-c5cn[nH]c5)ccc43)n2)CC1 (racemic) [Example 289]	–	Nav1.1 current amplification rate (%) [2]: 51%
CC1CC=C(c2ccc(=O)n(CC(=O)N3CCc4c(-c5cc[nH]n5)ccnc43)n2)CC1 (racemic) [Example 291]	–	Nav1.1 current amplification rate (%) [2]: 212%
CC1CC=C(c2ccc(=O)n(CC(=O)N3CCc4c(-c5cc[nH]n5)ccc(F)c43)n2)CC1 (racemic) [Example 292]	46%	–
CC1CC=C(c2ccc(=O)n(CC(=O)N3CCc4c(C=C5CCNCC5)cccc43)n2)CC1 (racemic) [Example 293]	–	Nav1.1 current amplification rate (%) [2]: 55%
CC1CC=C(c2ccc(=O)n(CC(=O)N3CCc4c3ccc(F)c4-c3ccnnc3)n2)CC1 (racemic) [Example 295]	95%	–
CC1CC=C(c2ccc(=O)n(CC(=O)N3CCc4c3ccnc4C3=CCOCC3)n2)CC1 (racemic) [Example 296]	87%	–
CC1CC=C(c2ccc(=O)n(CC(=O)N3CCc4c3ccnc4-c3cccnc3)n2)CC1 (racemic) [Example 297]	151%	–
CC1CC=C(c2ccc(=O)n(CC(=O)N3CCc4cc(-c5cccnc5)ccc43)n2)CC1 (racemic) [Example 298]	51%	–
CC1CC=C(c2ccc(=O)n(CC(=O)N3CCc4c(C5CN(C(C)C)C5)cccc43)n2)CC1 (racemic) [Example 304]	–	Nav1.1 current amplification rate (%) [3]: 167%
COCCCN1CC2(CCN(C(=O)Cn3nc(C4=CCC(C)CC4)ccc3=O)C2)C1 (racemic) [Example 308]	–	Nav1.1 current amplification rate (%) [2]: 9%

Compound	Nav1.1 current amplification rate (%) [1]	also measured
COC1CCN(c2nccc3c2CCN3C(=O)Cn2nc(C3=CCC(C)CC3)ccc2=O)CC1 (racemic) [Example 309]	71%	–
CC(=O)N1CC=C(c2nccc3c2CCN3C(=O)Cn2nc(C3=CCC(C)CC3)ccc2=O)C1 (racemic) [Example 310]	87%	–
CC1CC=C(c2ccc(=O)n(CC(=O)N3CCc4c(CNCC(F)F)cccc43)n2)CC1 (racemic) [Example 312]	80%	–
COCCNCc1cccc2c1CCN2C(=O)Cn1nc(C2=CCC(C)CC2)ccc1=O (racemic) [Example 314]	9%	–
CC1CC=C(c2ccc(=O)n(CC(=O)N3CCc4c(CNC5CCC5)cccc43)n2)CC1 (racemic) [Example 315]	19%	–
CC1CC=C(c2ccc(=O)n(CC(=O)N3CCc4c(CNC5CCOCC5)cccc43)n2)CC1 (racemic) [Example 317]	41%	–
CC1CC=C(c2ccc(=O)n(CC(=O)N3CCc4cc(OCC(C)(C)O)ccc43)n2)CC1 (racemic) [Example 320]	10%	–
Cc1cc2nc(NC(=O)Cn3nc(C4=CCC(C)CC4)ccc3=O)ccn2n1 (racemic) [Example 340]	–	Nav1.1 current amplification rate (%) [2]: 41%
CC1CC=C(c2ccc(=O)n(CC(=O)Nc3ccc4nncn4c3)n2)CC1 (racemic) [Example 341]	–	Nav1.1 current amplification rate (%) [2]: 202%
CC1CC=C(c2ccc(=O)n(CC(=O)Nc3ccc4ncnn4n3)n2)CC1 (racemic) [Example 350]	31%	–
Cc1cc2ncnn2cc1NC(=O)Cn1nc(C2=CCC(C)CC2)ccc1=O (racemic) [Example 351]	–	Nav1.1 current amplification rate (%) [2]: 98%
Cc1c(NC(=O)Cn2nc(C3=CCC(C)CC3)ccc2=O)ccc2ncnn12 (racemic) [Example 353]	–	Nav1.1 current amplification rate (%) [2]: 32%
CC1CC=C(c2ccc(=O)n(CC(=O)Nc3ccc4ncccc4c3)n2)CC1 (racemic) [Example 357]	–	Nav1.1 current amplification rate (%) [2]: 43%
CC1CC=C(c2ccc(=O)n(CC(=O)Nc3cncc(CN(C)C)c3)n2)CC1 (racemic) [Example 365]	–	Nav1.1 current amplification rate (%) [2]: 32%
COC1CN(Cc2cncc(NC(=O)Cn3nc(C4=CCC(C)CC4)ccc3=O)c2)C1 (racemic) [Example 366]	–	Nav1.1 current amplification rate (%) [2]: 37%
CC1CC=C(c2ccc(=O)n(CC(=O)NC3CCN(c4ccccc4)CC3)n2)CC1 (racemic) [Example 368]	–	Nav1.1 current amplification rate (%) [3]: 18%
CC1CC=C(c2ccc(=O)n(CC(=O)Nc3ccnc(CO)c3)n2)CC1 (racemic) [Example 370]	–	Nav1.1 current amplification rate (%) [3]: 35%
CC1CC=C(c2ccc(=O)n(CC(=O)Nc3ccnc(C4=CCN(C)C4)c3)n2)CC1 (racemic) [Example 371]	–	Nav1.1 current amplification rate (%) [2]: 64%
CC1CC=C(c2ccc(=O)n(CC(=O)NC3CN(c4ccccc4)C3)n2)CC1 (racemic) [Example 372]	–	Nav1.1 current amplification rate (%) [3]: 52%
CC1CC=C(c2ccc(=O)n(CC(=O)Nc3ccnc(CN4CCOCC4)c3)n2)CC1 (racemic) [Example 373]	–	Nav1.1 current amplification rate (%) [3]: 35%
CC1CC=C(c2ccc(=O)n(CC(=O)Nc3ccc(C4=CCN(C)C4)nc3)n2)CC1 (racemic) [Example 374]	–	Nav1.1 current amplification rate (%) [3]: 18%
CC1CC=C(c2ccc(=O)n(CC(=O)Nc3ccc(-c4cnn(C)c4)nc3)n2)CC1 (racemic) [Example 375]	–	Nav1.1 current amplification rate (%) [3]: 173%
CC1CC=C(c2ccc(=O)n(CC(=O)Nc3ccc(CO)nc3)n2)CC1 (racemic) [Example 376]	–	Nav1.1 current amplification rate (%) [3]: 44%

— patent US20220347175A1, “PYRIDAZINONE DERIVATIVE” (Sumitomo Dainippon Pharma Co., Ltd., priority 2018, published 2022)
